Results on eight molecules are retold here after patent US3935221A, “Substituted fusaric acid derivatives” (Banyu Pharmaceutical Co., Ltd., priority 1971, dated 1976).

A short description of data set [1]: Acute toxicity, LD50 of each drug in male mice (DBA). The data set is classed as in vivo. As to conditions: mouse, in vivo. The source says:
(§1) In this invention, 10-monohalo-fusaric acid can be prepared by dissolving dehydrofusaric acid in water or other suitable organic solvent, if necessary, together with a suitable reagent for generating hydrogen halide. Hydrogen halide is then introduced or generated to effect the addition reaction. […] The halo-fusaric halide can be prepared by reacting halogenating agent such as thionylchloride, hydrochloride with halo-fusaric acid in a solvent. The solvent can be inert solvent or halogenating agent such as thionyl chloride. The ahlo-fusaric acid amides of the invention can be prepared from the halo-fusaric halide in a solvent by introducing ammonia gas or adding methylamine, dimethylamine, ethylamine, diethylamine, etc.. The halogenating agents used for preparing halo-fusaric halide can be thionylchloride, hydrochloride, phosphorus pentachloride and phosphorus oxychloride. The thionylchloride can be used without a solvent, however, it is usual to carry out the halogenation of halo-fusaric acid in a solvent such as chloroform, benzene, etc.. The halo-fusaric halide reacts with ammonia or a lower alkylamine in a solvent such as chloroform, benzene, etc.. The ahlo-fusaric acid amide can be prepared from halo-fusaric acid ester by reacting it with an alkylamine. The halo-fusaric acid ester can be prepared by reacting halo-fusaric acid with an alcohol in the presence of […]. The details of the preparation of the halo-fusaric acid can be understood from the description of the examples. The halo-fusaric acid amides of the invention are characterized by a significant anti-hypertensive effects and low toxicity. The followings are test results of anti-hypertensive effects and toxicities of the typical halo-fusaric acid amides of the invention. The anti-hypertensive effects of dibromo, monobromo, dichloro and monochloro fusaric acid amide, monomethylamide, dimethylamide were compared with those of dibromofusaric acid and fusaric acid. Blood pressure of spontaneously hypertensive rats (SHR) derived from the colony of SHR produced by selective inbreeding of a strain of Wistar rats (Okamoto and Aoki, Jap. Circul. J. 27:282-293, 1963) was measured indirectly in unanaesthesized rats plethysmographically (Williams et al, J. Clin. Invest. 18:373-376, 1939). Thirty percent depression of systolic blood pressure was defined to be significant and effective change. […] LD50 of each drug was obtained using male mice (DBA).

For data set [2], the system named is spontaneously hypertensive rats (SHR). As to the kind of experiment: Antihypertensive action in spontaneously hypertensive rats, systolic blood pressure measured plethysmographically. In kind it is in vivo, Wistar-derived). As to conditions: for ED50: Rattus norvegicus.
Excerpt: as §1

The conditions of data set [3]: prior art statement; cited from earlier work.
The subject of another data set is dopamine-β-hydroxylase. The settings on record: prior art statement; cited from earlier work.
The next data set concerns male mice (DBA). As to the kind of experiment: Acute toxicity, LD50 of each drug in male mice (DBA). In kind it is in vivo. The settings on record: male mice (DBA), summary statement.
Excerpt: as §1

The nature of another data set: Solubility. The data set is classed as physicochemical. The settings on record: qualitative.
Setting [4] is: ip, antihypertensive action, intraperitoneal, SHR, 30% depression of systolic blood pressure defined as effective, read-out: ED50 (mg/kg) Intraperitoneally.
[5] abbreviates: antihypertensive action, oral, SHR, 30% depression of systolic blood pressure defined as effective, read-out: ED50 (mg/kg) Orally.
[6] abbreviates: ip, intraperitoneal, male mice (DBA), read-out: LD50 (mg/kg) Intraperitaneally.
The mark [7] stands for this setting: oral, male mice (DBA), read-out: LD50 (mg/kg) Orally.
[8] abbreviates: ip, read-out: ED50 (mg/kg) Intraperitoneally.
Where [9] appears, read: po, read-out: ED50 (mg/kg) Orally.

Where two headings read alike, the source gives them in different places.

As for `CN(C)C(=O)c1ccc(CCC(Cl)CCl)cn1` (stereo not shown) [Compound 5, N.N-Dimethyl-5-(3,4-dichlorobutyl)picolinamide], the LD50 came out at 188 mg/kg in data set [1] (ip) and 300 mg/kg in data set [1] (po). Further, the ED50 in data set [2] (setting [4]) worked out at 5 mg/kg; in data set [2] (setting [5]), 1.6 mg/kg.

Consider `CCCCc1ccc(C(=O)O)nc1` [Compound 7, Fusaric acid], for which the figures for the LD50 in data set [1] (setting [6]) and in data set [1] (setting [7]) were 110 mg/kg and 130 mg/kg, respectively. In data set [3], the toxicity result is reported as “quite high in toxicity”. For the same molecule, the “inhibition of the production of dopamine-β-hydroxylase” value in the data set with dopamine-β-hydroxylase is given as “inhibit the production of dopamine-β-hydroxylase”. Further, the ED50 in data set [2] (setting [8]) stood at 3.5 mg/kg; in data set [2] (setting [9]), 4 mg/kg.

For `NC(=O)c1ccc(CCC(Br)CBr)cn1` (stereo not shown) [Compound 1, 5-(3,4-Dibromobutyl)picolinamide], the LD50 amounted to 1170 mg/kg in data set [1] (setting [6]) and 1860 mg/kg in data set [1] (setting [7]). In the data set on male mice (DBA), the “toxicity (in words)” value is given as “the least toxic”. For the same molecule, the “Solubility: insoluble” value in the data set “Solubility” is reported as “Insoluble in water, ether”. Moreover, the “Solubility: soluble” value in “Solubility” is on record as “Soluble in alcohol, acetone, benzene, chloroform”. The ED50 in data set [2] (setting [8]) was 1 mg/kg; in data set [2] (setting [9]), 1.6 mg/kg. Besides, in data set [2] (SHR, summary statement), the “anti-hypertensive effects (in words)” value is listed as “the most effective drug for hypertension”.

Take `CC(Br)CCc1ccc(C(=O)O)nc1` (stereo not shown) [10-bromo-fusaric acid, 5-(3-bromobutyl)picolinic acid]: in “Solubility”, the “Solubility: insoluble” value is listed as “insoluble in n-hexane, petroleum ether”; the “Solubility: soluble” value was “soluble in alcohol, chloroform, acetone, benzene, ethylacetate, and is soluble in hot water but difficulty soluble in cold water”.

For `O=C(O)c1ccc(CCC(Br)CBr)cn1` (stereo not shown) [Compound 6, 5-(3,4-dibromobutyl)picolinic acid, reference compound], the LD50 in data set [1] (setting [6]) was determined as 132 mg/kg; in data set [1] (setting [7]), 180 mg/kg. Besides, in the data set “Solubility”, the “Solubility: insoluble” value is “insoluble in cold water and petroleum ether”. Moreover, the “Solubility: soluble” value in the data set “Solubility” was “soluble in alcohol, chloroform, benzene, ethylacetate, and hot water”. For the same molecule, the ED50 in data set [2] (setting [4]) came to 3.2 mg/kg; in data set [2] (setting [5]), 4 mg/kg.

For `CN(C)C(=O)c1ccc(CCC(Br)CBr)cn1` (stereo not shown) [Compound 3, N.N-Dimethyl-5-(3,4-dibromobutyl)picolinamide], the LD50 in data set [1] (ip) amounted to 304 mg/kg; in data set [1] (po), 500 mg/kg. Further, the ED50 was 3 mg/kg in data set [2] (setting [4]) and 4 mg/kg in data set [2] (setting [5]).

In the case of `NC(=O)c1ccc(CCC(Cl)CCl)cn1` (stereo not shown) [Compound 4, 5-(3,4-Dichlorobutyl)picolinamide], the figures for the LD50 in data set [1] (setting [6]) and in data set [1] (setting [7]) were 374 mg/kg and 620 mg/kg, respectively. Moreover, the “Solubility: insoluble” value in the data set “Solubility” is listed as “Insoluble in water, ether”. The “Solubility: soluble” value in the data set “Solubility” is on record as “Soluble in methanol, acetone, benzene, chloroform”. For the same molecule, the ED50 in data set [2] (setting [4]) amounted to 2 mg/kg; in data set [2] (setting [5]) it was 4 mg/kg.

Consider `CC(Br)CCc1ccc(C(N)=O)nc1` (stereo not shown) [Compound 2, 5-(3-Bromobutyl)picolinamide], for which the LD50 was 633 mg/kg in data set [1] (setting [6]) and 1050 mg/kg in data set [1] (setting [7]). Besides, the ED50 in data set [2] (setting [4]) is 2 mg/kg; in data set [2] (setting [5]) it was 4 mg/kg.
